Experiments:
[1] = tested on: MDA-MB-231 cells; assay: Antiproliferation assay (cell counting, 48 h) in MDA-MB-231 breast cancer cells; type: cell-based, human
Excerpt: (§1) Regarding the different characteristics of the used breast cancer cell lines, we can notice that MDA-MB-231 and Hs578T are triple negative.
(§2) Primary skin normal fibroblasts were kindly provided by Prof. Emer.

[2] = tested on: MCF-7 cells; assay: Antiproliferation assay (cell counting, 48 h) in MCF-7 breast cancer cells; type: cell-based, human
Excerpt: as §1, §2

[3] = tested on: Hs578T cells; assay: Antiproliferation assay (cell counting, 48 h) in Hs578T breast cancer cells; type: cell-based, human
Excerpt: as §1, §2

[4] = tested on: normal primary fibroblasts (FB); assay: cells; type: cell-based, human; settings: Fibroblast; normal primary human fibroblasts, 48 h incubation, cell counting
Excerpt: as §2

[5] = tested on: MDA-MB-231, MCF-7 and Hs578T breast cancer cell lines
Experimental: (§3) The antiproliferative activity of the synthesized DHA-chalcone hybrids 31–53 was evaluated using three characteristic breast carcinoma cell lines, MDA-MB-231, MCF-7, and Hs578T. For the sake of comparison, 5-FU, a widely used drug in clinical practice, was selected as positive control.
(§4) MCF-7 (ER-positive breast cancer cells, epithelial, low metastatic), MDA-MB-231, and Hs578T (triple negative breast cancer cells, mesenchymal, high metastatic) were obtained from American Type Culture Collection (ATCC) and cultured with DMEM high glucose/10% Fetal Bovine Serum (FBS) (supplied by Biosera). […] Cancer cells were seeded in 24 well plates (30,000 MCF-7 cells/well, 30.000 MDA-MB-231 cells/well, 25,000 Hs578T cells/well) and fibroblasts in 12 well plates (40,000 cells/well) and incubated in proper medium completed with 10% FBS for 48 h. Compounds were diluted in DMSO and working dilutions were prepared ranging from 5 to 200 μΜ for cancer cells and 1 to 100 μM for fibroblasts. All cells were incubated with working dilutions for 48 h. Afterwards, cells were detached by trypsinization, centrifuged at 3000 rpm for 3 min, and counted using a hemocytometer. Antiproliferation values were then calculated relatively to cancer or normal cells treated only with DMSO. […] IC50 values were calculated using GraphPad Prism 5 (Graph Pad Software).

[6] = tested on: MDA-MB-231, MCF-7 and Hs578T breast cancer cell lines; assay: cells; settings: Homo sapiens, read-out: IC50 against all the cancer cell lines
Experimental: as §3, §4

Question: What does the source list for `COC(=O)[C@]1(C)CCC[C@]2(C)c3cc(O)c(C(=O)/C=C/c4cccnc4)cc3CCC12` (stereo partly drawn) [Compound 33, (1R,4aS)-methyl 6-hydroxy-1,4a-dimethyl-7-((E)-3-(pyridin-3-yl)acryloyl)-1,2,3,4,4a, 9,10,10a-octahydrophenanthrene-1-carboxylate]?
Answer: Selectivity Index for MDA-MB-231 ([1]; FB IC50 relative to MDA-MB-231 IC50): 1.47; IC50 ([1]; Homo sapiens, MDA-MB-231 cells, 48 h incubation, cell counting): 5.89 ± 0.77 µM; Selectivity Index for MCF-7 ([2]; FB IC50 relative to MCF-7 IC50): 3.93; IC50 ([2]; Homo sapiens, MCF7, MCF-7 cells, 48 h incubation, cell counting): 2.21 ± 0.4 µM; Selectivity Index for Hs578T ([3]; FB IC50 relative to Hs578T IC50): 3.50; IC50 ([3]; Homo sapiens, Hs-578T, Hs578T cells, 48 h incubation, cell counting): 2.48 ± 0.13 µM; IC50 [4]: 8.68 ± 0.88 µM; times less toxic than 5-FU (selectivity indices) [5]: 2.2-3 times; times more active than 5-FU [5]: 2.4-3.3 times; IC50 [6]: 2.21 to 5.89 µM
